Target: Fatty acid synthase (Gallus gallus, UniProt P12276)
Assay: FAS Activity Assay
Settings: pH 7; 37 °C
Method: FAS activity was determined by monitoring the decrease in absorbence at 340 nm resulting from the oxidation of NADPH using an Amersham Pharmacia Ultrospec 4300 pro UV-Vis spectrophotometer at 37°C. The assay mixture contained 100 mM potassium phosphate buffer, pH 7.0, 1 mM EDTA (ethylenediaminetetraacetic acid), 2.5 μM acetyl-CoA, 10 μM malonyl-CoA, 32 μM NADPH, and 10 μg chicken liver FAS in a total volume of 2.0 mL [Tian et al., J. Biol. Chem., 260:11375-87]. Fast inhibition was determined by adding thioether to the reaction system before FAS initiated the reaction. The initial velocity was measured to calculate the remaining activity (RA) of FAS, and each assay was repeated three times.

Sequence of Fatty acid synthase (P12276 whole entry): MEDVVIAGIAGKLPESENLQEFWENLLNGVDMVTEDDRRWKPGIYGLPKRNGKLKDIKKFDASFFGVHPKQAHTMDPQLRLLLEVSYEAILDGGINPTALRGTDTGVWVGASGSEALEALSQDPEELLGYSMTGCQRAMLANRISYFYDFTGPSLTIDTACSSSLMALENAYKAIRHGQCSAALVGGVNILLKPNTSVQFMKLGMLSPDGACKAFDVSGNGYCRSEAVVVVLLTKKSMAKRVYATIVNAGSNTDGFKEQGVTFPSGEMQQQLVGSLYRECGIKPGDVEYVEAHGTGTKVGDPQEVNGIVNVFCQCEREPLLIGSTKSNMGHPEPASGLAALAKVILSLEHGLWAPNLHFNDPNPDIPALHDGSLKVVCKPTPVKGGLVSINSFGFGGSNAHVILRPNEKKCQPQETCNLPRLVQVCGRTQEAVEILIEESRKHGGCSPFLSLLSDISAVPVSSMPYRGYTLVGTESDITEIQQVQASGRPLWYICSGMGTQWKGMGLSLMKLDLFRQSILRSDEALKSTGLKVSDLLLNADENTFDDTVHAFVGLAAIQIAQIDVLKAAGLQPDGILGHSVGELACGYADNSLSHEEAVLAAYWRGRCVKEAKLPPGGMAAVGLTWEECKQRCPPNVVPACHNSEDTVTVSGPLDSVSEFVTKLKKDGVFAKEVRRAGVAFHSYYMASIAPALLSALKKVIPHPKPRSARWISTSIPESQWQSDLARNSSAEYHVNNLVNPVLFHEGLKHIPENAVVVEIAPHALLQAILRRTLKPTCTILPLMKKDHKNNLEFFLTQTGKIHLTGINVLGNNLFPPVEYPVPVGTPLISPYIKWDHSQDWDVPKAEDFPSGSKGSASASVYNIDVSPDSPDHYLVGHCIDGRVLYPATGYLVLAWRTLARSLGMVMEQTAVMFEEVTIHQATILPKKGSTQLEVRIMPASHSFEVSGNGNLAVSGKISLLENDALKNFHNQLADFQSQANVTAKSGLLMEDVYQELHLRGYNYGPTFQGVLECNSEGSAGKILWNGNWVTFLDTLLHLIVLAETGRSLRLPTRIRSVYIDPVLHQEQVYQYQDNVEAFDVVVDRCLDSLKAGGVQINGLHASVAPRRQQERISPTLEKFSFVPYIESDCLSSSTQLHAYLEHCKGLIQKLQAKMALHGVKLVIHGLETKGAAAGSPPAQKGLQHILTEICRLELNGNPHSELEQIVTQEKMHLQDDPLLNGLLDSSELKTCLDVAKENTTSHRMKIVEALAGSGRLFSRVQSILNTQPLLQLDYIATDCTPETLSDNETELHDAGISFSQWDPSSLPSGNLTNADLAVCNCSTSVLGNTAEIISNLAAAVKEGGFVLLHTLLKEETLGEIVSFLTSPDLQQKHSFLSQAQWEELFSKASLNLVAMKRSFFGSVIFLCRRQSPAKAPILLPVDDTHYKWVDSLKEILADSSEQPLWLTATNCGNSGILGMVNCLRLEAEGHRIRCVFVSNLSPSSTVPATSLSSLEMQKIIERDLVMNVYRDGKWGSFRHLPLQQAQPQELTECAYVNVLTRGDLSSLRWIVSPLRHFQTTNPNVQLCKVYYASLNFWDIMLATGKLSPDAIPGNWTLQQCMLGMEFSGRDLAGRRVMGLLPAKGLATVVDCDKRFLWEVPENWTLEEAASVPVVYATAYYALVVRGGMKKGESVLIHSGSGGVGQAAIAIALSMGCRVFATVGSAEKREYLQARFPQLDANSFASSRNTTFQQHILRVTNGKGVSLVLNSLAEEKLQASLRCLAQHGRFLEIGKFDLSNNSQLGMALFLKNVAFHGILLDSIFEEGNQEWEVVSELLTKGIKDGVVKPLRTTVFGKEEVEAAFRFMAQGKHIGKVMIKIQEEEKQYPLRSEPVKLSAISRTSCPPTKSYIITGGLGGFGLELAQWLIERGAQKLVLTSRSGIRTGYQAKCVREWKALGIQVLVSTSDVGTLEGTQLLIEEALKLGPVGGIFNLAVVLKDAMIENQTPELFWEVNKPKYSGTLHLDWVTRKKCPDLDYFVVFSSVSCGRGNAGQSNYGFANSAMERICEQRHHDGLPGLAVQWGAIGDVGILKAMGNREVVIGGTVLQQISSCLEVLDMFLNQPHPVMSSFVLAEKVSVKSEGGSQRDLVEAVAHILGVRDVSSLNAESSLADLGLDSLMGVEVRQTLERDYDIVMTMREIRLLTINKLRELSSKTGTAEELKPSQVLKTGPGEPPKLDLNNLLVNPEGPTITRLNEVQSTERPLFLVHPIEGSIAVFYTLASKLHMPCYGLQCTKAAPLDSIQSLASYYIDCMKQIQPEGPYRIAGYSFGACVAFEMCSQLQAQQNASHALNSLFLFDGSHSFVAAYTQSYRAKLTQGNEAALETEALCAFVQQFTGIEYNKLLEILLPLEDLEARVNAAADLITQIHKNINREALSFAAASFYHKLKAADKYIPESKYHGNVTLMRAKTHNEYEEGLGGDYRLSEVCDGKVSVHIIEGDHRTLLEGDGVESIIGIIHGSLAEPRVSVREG

C=CCSSCC=C [3-Allyldisulfanyl-propene]
IC50: 145 µM

C=CCSSSCC=C [Diallyl trisulfide]
IC50: 8.37 µM

CSSC [Dimethyl disulfide]
IC50: 2210 µM

Source: BindingDB's records for doi:10.3109/14756360903179377 (Graduate University of Chinese Academy of Sciences, 2010)
